Tests used:
[1] = system: AHAS enzyme of A122T heterozygous hybrid (cmsBTK47 × R731); test: AHAS enzyme activity assay, Set 2; format: biochemical, sunflower; conditions: Set 2 (FIG. 14)
Method: (§1) Twelve greenhouse grown sunflower plants from each of the lines depicted in Table 21 were bulked and subjected to an AHAS enzyme activity assay via the method of Singh et al. (1988) Anal. Biochem. 171:173-179. Each activity assay was repeated twice. Due to the large number of samples, the experiment was split into two sets (Table 21).
(§2) Young, actively growing leaves, from four week old plantlets, were ground in a mortar and pestle with liquid N2 and extracted with a buffer composed of 100 mM Pyruvate, 200 mM KH2PO4, 20 mM MgCl2, 2 mM thiamine pyrophosphate and […]. Plant extracts were then spun through a 10 mL Zeba™ TM desalt spin column (Pierce #89893) as per the manufacturer's recommendation. The inhibition assay was performed as described by Singh et al. (1988) Anal. Biochem. 171:173-179. Assays were conducted in a 96-well format. Fifty μl of inhibitor was added to each well containing 50 μl of soluble protein extract to give final concentrations of 0.78, 1.56, 3.125, 6.25, 12.5, 25, 50 and 100 μM imazamox or 0.78, 1.56, 3.125, 6.25, 12.5, 25, 50 and 100 μM imazapyr. Zero herbicide controls were also included for each line. Reactions were processed as outlined by Singh et al. (1988) Anal. Biochem. 171:173-179. Absorbance was measured at 530 nm. AHAS activity, expressed as the mean of the absorbance values for each treatment, was presented as a percentage of the mean of the zero-herbicide controls.

[2] = system: AHAS enzyme of A122T homozygous (GM40); test: AHAS enzyme activity assay, Set 2; format: biochemical, sunflower; conditions: Set 2 (FIG. 14)
Method: as §1, §2

[3] = system: AHAS enzyme of A205V homozygous (B7imi, IMISUN1); test: AHAS enzyme activity assay, Set 2; format: biochemical, sunflower; conditions: Set 2 (FIG. 14)
Method: as §1, §2

[4] = system: heterozygous A205V/A122T lines; test: field phytotoxicity trial North Dakota 2006 (Example 3); format: in vivo, sunflower; conditions: 200 g ai/ha of imazamox, 21 DAT
Method: (§3) • Spray volume: 10 gallons per acre (GPA) (or 100 liters/ha) for backpack sprayer or 20 GPA (or 200 liters/ha) for tractor mounted boom • Growth Stage at Herbicide Application: 2-4 leaves • Entry 15 (WT Maintainer line) was left unsprayed in all treatment blocks.
(§4) Phytotoxicity ratings were assessed at 7 and 21 days following herbicide application.
(§5) The data was subjected to an ANOVA analysis and the means from the 3 repetitions are presented in Table 7 (phytotoxicity at 7 days post-treatment) and Table 8 (phytotoxicity at 21 days post-treatment).

[5] = system: homozygous A122T/A122T lines; test: as above; format: in vivo, sunflower; conditions: 200 g ai/ha of imazamox, 21 DAT
Method: as §3, §4, §5

[6] = system: homozygous A205V/A205V lines; test: as above; format: in vivo, sunflower; conditions: 200 g ai/ha of imazamox, 21 DAT
Method: as §3, §4, §5

[7] = system: sunflower hybrid H2 (L3*L4), 122/122; test: field trial, imazapyr at V8 or R1 stage (Example 4); conditions: H2 122/122
[8] = system: sunflower line BTI-OL-2201; test: tolerance to imidazolinones, greenhouse (Example 8); conditions: 160 gr/ha at V4, fourteen days after treatment
[9] = system: heterozygous A205V entries; test: field phytotoxicity trial North Dakota 2006 (Example 3); format: in vivo, sunflower; conditions: 160 g ai/ha of imazapyr, 21 DAT
Method: as §3, §4, §5

[10] = system: sunflower line OB712 (high oleic); test: tolerance to imidazolinones, greenhouse (Example 8)
[11] = system: sunflower line HA445 (high oleic); test: as above
[12] = system: sunflower hybrid H1 (L1*L2), 205/205; test: field trial, imazapyr at V8 or R1 stage (Example 4); conditions: H1 205/205
[13] = 160 g ai/ha applied at R1, 14 DAT
[14] = 160 g ai/ha applied at R1, 21 DAT
[15] = 160 g ai/ha applied at V8, 14 DAT
[16] = 160 g ai/ha applied at V8, 21 DAT
[17] = 160 gr/ha at V4, fourteen days after treatment

COCc1cnc(C2=NC(C)(C(C)C)C(=O)N2)c(C(=O)O)c1 (centres unmarked) [imazamox]
AHAS activity, % of untreated control ([1]; 50 μM): 30% | AHAS activity, % of untreated control ([1]; 100 μM): 30% | AHAS activity, % of untreated control ([2]; 50 μM): 63% | AHAS activity, % of untreated control ([2]; 100 μM): 60% | AHAS activity, % of untreated control ([3]; 50 μM): 30% | AHAS activity, % of untreated control ([3]; 100 μM): 26% | phytotoxicity [4]: 2-3% | phytotoxicity [5]: 3-5% | phytotoxicity [6]: 15-22%

CC(C)C1(C)N=C(c2ncccc2C(=O)O)NC1=O (centres unmarked) [imazapyr]
Mean Phytotoxicity Index (0-50) [7, 13]: 2.3 | Mean Phytotoxicity Index (0-50) [7, 14]: 1.7 | Mean Phytotoxicity Index (0-50) [7, 15]: 5 | Mean Phytotoxicity Index (0-50) [7, 16]: 1 | Mean Phytotoxicity Index (0-9) [8]: 0.2 | phytotoxicity [9]: 20-43% | outcome of the herbicide treatment ([10]; 160 gr/ha at V4): killed | Mean Phytotoxicity Index (0-9) [10, 17]: 9 | outcome of the herbicide treatment ([11]; 160 gr/ha at V4): killed | Mean Phytotoxicity Index (0-9) [11, 17]: 8.8 | Mean Phytotoxicity Index (0-50) [12, 13]: 35 | Mean Phytotoxicity Index (0-50) [12, 14]: 37.7 | Mean Phytotoxicity Index (0-50) [12, 15]: 6 | Mean Phytotoxicity Index (0-50) [12, 16]: 3

Reference: patent US20150148234A1, “HERBICIDE-RESISTANT SUNFLOWER PLANTS WITH MULTIPLE HERBICIDE RESISTANT ALLELES OF AHASL1 AND METHODS OF USE” (NIDERA S.A., priority 2013, published 2015)
